In PMC10182041, “A first-in-class inhibitor of Hsp110 molecular chaperones of pathogenic fungi” (Nature Communications, 2023):

Assays:
Ssa1 = Ssa1 (Saccharomyces cerevisiae, UniProt P10591); assay: displacement of pre-bound ATP-FAM, fluorescence polarization; format: binding
Msi3 [1] = target: Msi3 (Candida albicans, UniProt Q96VB9); assay: IC50 from the luciferase holdase assay; format: biochemical
Msi3 [2] = target: Msi3 (Candida albicans, UniProt Q96VB9, I164D); assay: luciferase aggregation (holdase) assay at OD320 with purified mutant; format: biochemical
Chain of Msi3 (Candida albicans, UniProt Q96VB9, I164D) (Q96VB9 whole entry I164D): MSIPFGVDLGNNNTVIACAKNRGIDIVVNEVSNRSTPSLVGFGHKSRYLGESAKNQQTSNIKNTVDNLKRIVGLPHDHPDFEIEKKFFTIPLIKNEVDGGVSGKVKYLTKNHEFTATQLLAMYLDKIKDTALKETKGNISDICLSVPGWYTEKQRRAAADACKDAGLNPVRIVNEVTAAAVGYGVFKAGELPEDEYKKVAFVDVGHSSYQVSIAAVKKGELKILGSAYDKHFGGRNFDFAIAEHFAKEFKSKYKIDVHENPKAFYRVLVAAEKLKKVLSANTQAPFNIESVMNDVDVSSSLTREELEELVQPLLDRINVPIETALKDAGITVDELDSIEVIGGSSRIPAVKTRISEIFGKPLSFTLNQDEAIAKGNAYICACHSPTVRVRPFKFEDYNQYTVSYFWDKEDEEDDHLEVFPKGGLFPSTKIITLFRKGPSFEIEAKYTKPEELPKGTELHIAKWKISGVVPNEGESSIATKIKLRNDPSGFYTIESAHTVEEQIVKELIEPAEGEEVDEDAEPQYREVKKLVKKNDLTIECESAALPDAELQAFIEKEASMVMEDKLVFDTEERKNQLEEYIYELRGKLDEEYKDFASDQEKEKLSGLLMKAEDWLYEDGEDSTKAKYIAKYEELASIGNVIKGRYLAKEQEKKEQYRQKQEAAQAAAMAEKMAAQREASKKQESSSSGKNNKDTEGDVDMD

Sse1 = target: T1, Sse1 (Saccharomyces cerevisiae, UniProt P32589); assay: reduction of ATP-FAM binding to purified Sse1, fluorescence polarization; format: biochemical
T1 sequence (P32589 1-693): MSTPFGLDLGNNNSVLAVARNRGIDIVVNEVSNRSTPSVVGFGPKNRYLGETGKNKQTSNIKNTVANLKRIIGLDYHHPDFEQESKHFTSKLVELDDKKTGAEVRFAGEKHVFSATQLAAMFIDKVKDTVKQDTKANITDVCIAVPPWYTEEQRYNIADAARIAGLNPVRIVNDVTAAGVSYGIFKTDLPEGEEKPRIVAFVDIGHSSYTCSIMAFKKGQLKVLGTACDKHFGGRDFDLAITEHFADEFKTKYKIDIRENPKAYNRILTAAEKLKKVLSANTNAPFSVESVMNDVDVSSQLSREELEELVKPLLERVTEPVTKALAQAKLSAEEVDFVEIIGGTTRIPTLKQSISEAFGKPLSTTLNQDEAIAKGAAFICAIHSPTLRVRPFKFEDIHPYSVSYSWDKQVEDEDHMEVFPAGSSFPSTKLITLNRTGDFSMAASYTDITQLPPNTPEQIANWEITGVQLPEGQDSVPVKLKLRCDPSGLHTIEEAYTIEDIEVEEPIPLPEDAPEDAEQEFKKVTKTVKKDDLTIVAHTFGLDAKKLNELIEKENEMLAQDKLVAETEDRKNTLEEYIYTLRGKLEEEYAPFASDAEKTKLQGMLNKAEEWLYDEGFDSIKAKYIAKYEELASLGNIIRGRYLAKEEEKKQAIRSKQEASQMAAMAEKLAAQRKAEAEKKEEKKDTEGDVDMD

Chain of Msi3 (Candida albicans, UniProt Q96VB9) (Q96VB9 whole entry): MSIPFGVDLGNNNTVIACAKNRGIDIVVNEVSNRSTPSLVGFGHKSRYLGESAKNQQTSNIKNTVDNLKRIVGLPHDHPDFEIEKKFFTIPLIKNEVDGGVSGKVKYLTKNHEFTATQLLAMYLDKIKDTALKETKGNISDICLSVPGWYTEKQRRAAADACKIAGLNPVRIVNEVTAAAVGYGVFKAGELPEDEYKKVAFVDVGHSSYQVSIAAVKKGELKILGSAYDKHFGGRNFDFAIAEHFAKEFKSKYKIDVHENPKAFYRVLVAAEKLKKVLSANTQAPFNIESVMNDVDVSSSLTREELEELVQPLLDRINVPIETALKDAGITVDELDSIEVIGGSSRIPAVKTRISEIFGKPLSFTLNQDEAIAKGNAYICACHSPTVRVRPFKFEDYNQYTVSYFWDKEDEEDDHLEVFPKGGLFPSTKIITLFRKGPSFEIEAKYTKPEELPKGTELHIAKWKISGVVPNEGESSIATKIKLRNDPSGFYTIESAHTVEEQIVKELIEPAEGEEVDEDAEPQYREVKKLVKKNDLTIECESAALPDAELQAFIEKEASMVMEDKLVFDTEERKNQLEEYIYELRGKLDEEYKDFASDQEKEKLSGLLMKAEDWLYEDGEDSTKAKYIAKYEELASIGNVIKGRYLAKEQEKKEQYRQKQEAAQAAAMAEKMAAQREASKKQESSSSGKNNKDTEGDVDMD
Chain of Ssa1 (P10591 2-642): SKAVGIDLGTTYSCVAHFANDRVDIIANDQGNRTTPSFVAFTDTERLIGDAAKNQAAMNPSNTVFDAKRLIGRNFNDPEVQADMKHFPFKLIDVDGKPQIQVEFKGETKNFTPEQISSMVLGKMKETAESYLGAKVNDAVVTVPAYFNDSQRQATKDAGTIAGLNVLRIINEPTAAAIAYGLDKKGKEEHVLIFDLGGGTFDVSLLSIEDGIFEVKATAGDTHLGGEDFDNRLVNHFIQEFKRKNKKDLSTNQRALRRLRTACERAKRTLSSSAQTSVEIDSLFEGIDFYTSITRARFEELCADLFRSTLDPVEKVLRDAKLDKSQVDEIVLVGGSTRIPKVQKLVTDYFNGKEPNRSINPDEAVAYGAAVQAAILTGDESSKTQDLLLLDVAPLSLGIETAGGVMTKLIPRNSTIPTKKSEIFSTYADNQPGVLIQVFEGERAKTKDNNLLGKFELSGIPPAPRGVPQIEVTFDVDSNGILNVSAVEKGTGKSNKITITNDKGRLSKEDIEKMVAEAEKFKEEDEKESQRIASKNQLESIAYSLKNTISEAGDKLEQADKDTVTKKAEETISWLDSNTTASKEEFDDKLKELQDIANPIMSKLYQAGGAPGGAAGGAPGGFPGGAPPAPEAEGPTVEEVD

Nc1ncnc2c1ncn2[C@@H]1O[C@H](COP(=O)(O)OP(=O)(O)OP(=O)(O)O)[C@@H](O)[C@H]1O [ATP]
displacement of pre-bound ATP-FAM, fluorescence polarization (Ssa1): suggesting that the pre-bound ATP-FAM was slowly replaced by the regular ATP

Cc1cccc(COc2nc3c(cc2-c2nc(N)cc(N)n2)c(C)nn3-c2ccccc2)c1 [2H, HLQ2H]
IC50 (Msi3 [1]): 5.02 ± 0.35 µM
luciferase aggregation (holdase) assay at OD320 with purified mutant (Msi3 [2]): A similar inhibition of holdase activity was observed for this mutant when treated with 2H (Fig. S6a)
reduction of ATP-FAM binding to purified Sse1, fluorescence polarization (Sse1): 2H showed a similar inhibition on Sse1 (Fig. S1a), the major Hsp110 from S. cerevisiae
